# Experimental data as given in patent US9233971B2, “Lipomacrocycles and uses thereof” (priority 2010, dated 2016).
# Key:
# APOB mRNA in liver = test: In vivo gene knockdown, liposomal siRNA formulation (Example 3), APOB siRNA; settings: dose 3 mg/kg intravenously, CD1 mice, liver harvested three days later, real-time RT-PCR, GAPDH reference
# Method: (§1) Each liposome formulation was made by mixing lipids of each lipomacrocycle compound (Table 1) combined with DSPC, DMG-PEG 2K, and cholesterol at the weight ratio of 3.85:0.42:0.21:0.79 in ethanol and siRNA in water. Then 5% dextrose water was added in each formulation before dosing to mice.
# (§2) All procedures used in animal studies conducted were approved by the Institutional Animal Care and Use Committee (IACUC) and were consistent with local, state and federal regulations as applicable. Mice, rats, and rabbits received siRNA formulations intravenously at dose volume of 0.2 ml, 1 ml, or 10 ml, respectively. Animals were sacrificed 2 to 7 days later. Tissues were harvested and mRNA was isolated with Turbocapture kit (Qiagen) for analyzing change of gene expression with real-time RT-PCR method (SensiMix SYBR One-Step Kit, Bioline). Serum was harvested for analyzing blood chemistry.
# (§3) CD1 mice were dosed with lipid particle (Table 1) or liposome (Table 2) siRNA formulation intravenousely and the different tissues were harvested three days later. The gene expression was analyzed with real-time RT-PCR method (for liver, GAPDH as reference gene; for lung and bone marrow, GAPDG and β-actin as reference genes).
# SSB mRNA in liver [1] = test: In vivo gene knockdown, liposomal siRNA formulation (Example 3), SSB siRNA; design: species or system CD1 mice; settings: liposomal formulation, SSB siRNA, dose 3.2 mg/kg intravenously, CD1 mice, liver harvested three days later, real-time RT-PCR, GAPDH reference
# Method: as §1, §2, §3
# SSB mRNA in liver [2] = test: In vivo gene knockdown, lipid particle siRNA formulation (Example 4), SSB siRNA; settings: lipid particles, dose 3.2 mg/kg intravenously, CD1 mice, liver harvested three days later, real-time RT-PCR, GAPDH reference
# Method: Lipid Particle formulations were made by first mixed siRNA in an aqueous solution with DOTMA in organic solvent to produce a water-insoluble precipitate. After isolating and drying the precipitate, the precipitate was dissolved in chloroform and further mixed with other lipids as following: Each lipid particle formulation was consisting of 1 part DOTMA+siRNA complex/5 parts any lipomacrocycle compound (Table 1)/1.5 parts N 6-tetrakis (3-aminopropyl)-1,3-propanediamine cholesteryl carbamate/2.2 parts 1,2-dilinoleoyl-sn-glycero-3-phosphoethanolamine/10.08 parts cholesterol PEG-660/4.32 parts cholesterol PEG-660/0.6 parts cholesterol (weight/weight). All the components were dissolved in chloroform and mixed together. Then, the mixtures were dried overnight in Speedvac. The dried formulations were hydrated by adding in certain amount of 5% dextrose water before dosing to animals intravenously.
# as §2, §3
smiles,measurement,setting,value
CC(C)(C)c1ccc(C(=O)OCC(O)CN(CCCN(CCCCN(CCCN(CC(O)COC(=O)c2ccc(C(C)(C)C)cc2)CC(O)COC(=O)c2ccc(C(C)(C)C)cc2)CCCN(CC(O)COC(=O)c2ccc(C(C)(C)C)cc2)CC(O)COC(=O)c2ccc(C(C)(C)C)cc2)CCCN(CC(O)COC(=O)c2ccc(C(C)(C)C)cc2)CC(O)COC(=O)c2ccc(C(C)(C)C)cc2)CC(O)COC(=O)c2ccc(C(C)(C)C)cc2)cc1 (stereo not shown) [Compound T4C11],Targeted mRNA remain in liver,APOB mRNA in liver,1.07
CCCCCCCCCCCCOCC(O)CN(CCCN(CCCCN(CCCN(CC(O)COCCCCCCCCCCCC)CC(O)COCCCCCCCCCCCC)CCCN(CC(O)COCCCCCCCCCCCC)CC(O)COCCCCCCCCCCCC)CCCN(CC(O)COCCCCCCCCCCCC)CC(O)COCCCCCCCCCCCC)CC(O)COCCCCCCCCCCCC (stereo not shown) [Compound T4C10],Targeted mRNA remain in liver,APOB mRNA in liver,0.82
CC(C)(C)C(O)(CCc1ccc(Cl)cc1)CN(CCCN(CCCCN(CCCN(CC(O)(CCc1ccc(Cl)cc1)C(C)(C)C)CC(O)(CCc1ccc(Cl)cc1)C(C)(C)C)CCCN(CC(O)(CCc1ccc(Cl)cc1)C(C)(C)C)CC(O)(CCc1ccc(Cl)cc1)C(C)(C)C)CCCN(CC(O)(CCc1ccc(Cl)cc1)C(C)(C)C)CC(O)(CCc1ccc(Cl)cc1)C(C)(C)C)CC(O)(CCc1ccc(Cl)cc1)C(C)(C)C (stereo not shown) [Compound T4C18],Targeted mRNA remain in liver,APOB mRNA in liver,1.56
CCCCCCCCCCCCCCOCC(O)CN(CCCN(CCCN(CCCN(CC(O)COCCCCCCCCCCCCCC)CC(O)COCCCCCCCCCCCCCC)CCCN(CC(O)COCCCCCCCCCCCCCC)CC(O)COCCCCCCCCCCCCCC)CCCN(CC(O)COCCCCCCCCCCCCCC)CC(O)COCCCCCCCCCCCCCC)CC(O)COCCCCCCCCCCCCCC (stereo not shown) [Compound T3C1],Targeted mRNA remain in liver,SSB mRNA in liver [1],0.13
same,Targeted mRNA remain in liver,SSB mRNA in liver [2],0.18
CCCCCCCCCCCCCCOCC(O)CN1CCCN(CC(O)COCCCCCCCCCCCCCC)CCCN(CC(O)COCCCCCCCCCCCCCC)CCC1 (stereo not shown) [Compound M9C1],Targeted mRNA remain in liver,SSB mRNA in liver [1],0.3
same,Targeted mRNA remain in liver,SSB mRNA in liver [2],0.2
